Results published in patent US12653836B2, “Ketogenic diet and ketone supplementation for cancer therapy” (The Trustees of Princeton University, priority 2020, dated 2026).

Assay: Isotope tracer infusion: circulatory turnover flux (Fcirc)
Type: in vivo, mouse
Settings: fasted mice
Source text: To confirm this idea, and to test whether the same might be true of circulating 3HB and acetoacetate, a set of isotope-tracer infusion experiments was devised. The circulatory turnover flux (Fcirc) of a given metabolite refers to the rate at which tissues collectively take up the metabolite from arterial circulation; alternatively, Fcirc can be defined as the rate at which tissues collectively excrete the metabolite into the venous circulation, as these two rates are equal at steady state in minimally perturbative tracer infusions.
Isotope tracer infusion. For lactate circulatory turnover flux measurements, 10-14 weeks old C57BL/6 mice were catheterized via both left carotid artery and right jugular vein, as non-perturbative arterial blood sampling is required for precise measurement of circulating lactate labeling. Mice were allowed to recover for 5 days. Mice were fasted from ZT2 to ZT6.5. Sodium [2-^2H] or [U-^13C]lactate solution was diluted to 5% w/w in water, and infused into the double catheterized mice from ZT6.5 to ZT9 to pseudo steady state. Arterial blood was sampled to calculate the turnover rate for ^2H or ^13C lactate.
For other tracing experiments, 10-14 weeks old C57BL6/J mice or mice bearing tumors (KPC flank allografts or Kras^LSL-G12D/+Trp53^−/−Pdx-1-Cre GEMM, tumor sizes ˜150 mm^3) were catheterized via right jugular vein. Mice were allowed to recover from surgery for 3-5 days. For 3HB circulatory turnover flux experiments, mice were fasted from ZT2 to ZT6.5, and [3,4,4,4-^2H] or [U-^13C]3HB were infused to catheterized mice from ZT6.5 to ZT9. Tail blood was sampled to calculate the turnover rate for ^2H or ^13C 3HB.
Metabolic flux quantitation. Circulatory turnover flux, Fcirc was calculated as previously described (Hui et al., 2017), using arterial serum for lactate due to its substantial arterial-venous labeling gradient and tail vein serum for other nutrients:
[formula] R is the infusion rate of the labeled tracer and L is the fractional enrichment of infused labeled form of the metabolite tracer. Fcirc values of ^2H-labeled metabolites were corrected for kinetic isotope effect (KIE, determined from the enzymatic assays) by multiplying the observed Fcirc by KIE value of ^2H tracer.

Row | Compound | circulatory turnover flux [nmol/g/min]
1 | [2H]C([2H])([2H])C([2H])(O)CC(=O)O (stereo not shown) [^2H-labeled 3HB, [3,4,4,4-^2H]3HB] | ~40
2 | [2H]C(C)(O)C(=O)[O-].[Na+] (stereo not shown) [^2H-labeled lactate, Sodium [2-^2H]lactate] | 550
3 | [13CH3][13CH](O)[13CH2][13C](=O)O (stereo not shown) [^13C-labeled 3HB, [U-^13C]3HB] | ~40
4 | [13CH3][13CH](O)[13C](=O)[O-].[Na+] (stereo not shown) [^13C-labeled lactate, Sodium [U-^13C]lactate] | 380
